We go through 63 molecules from US12251387B2, “Substituted quinoxalines and benzo[c][1,2,5]oxadiazoles as DNA-PK inhibitors” (Vertex Pharmaceuticals Incorporated, priority 2013, dated 2025).

SMILES strings stand for the structures. Some results are limits rather than exact numbers.

The term Ki denotes a dissociation constant, usually derived from enzyme kinetics or from competition with a known ligand.

The target of the experiment is DNA-PK (Homo sapiens, UniProt P78527). Nature of the experiment: DNA-PK Inhibition Assay (standard radiometric kinase assay, 33P-ATP, peptide substrate). The settings on record: radiometric assay, approximately 6 nM DNA-PK, 100 μM ATP, 45 min; fit to competitive tight-binding inhibition; read-out: Ki for the inhibition of DNA-PK. Format: biochemical. In short, it runs like this: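 Radiometric transfer of 33P from ATP (100 μM) to peptide substrate (0.8 mg/mL) by about 6 nM DNA-PK with 10 μg/mL sheared dsDNA, pH 7.5 HEPES/MgCl2, 45 min, phosphoric acid quench, filter capture and scintillation counting. Ki fitted to a competitive tight-binding inhibition model.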
For `c1cnc2c(O[C@H]3CC[C@@H](Nc4ccc(OCCN5CCCCC5)cn4)CC3)cc(N3CCOCC3)cc2n1` [Compound 640], the inhibition constant Ki is less than 0.1 µM.

`COc1cnc(Cl)nc1N[C@H]1CC[C@@H](Oc2cc(N3CCOCC3)cc3nccnc23)CC1` [Compound 401]: the Ki was less than 0.1 µM.

As to `COCCNc1ncnc(N[C@H]2CC[C@@H](Oc3cc(N4CCOCC4)cc4nccnc34)CC2)c1F` [Compound 382], the Ki was less than 0.1 µM. With `CC(C)(O)CNc1ncnc(N[C@H]2CC[C@@H](Oc3cc(N4CCOCC4)cc4nccnc34)CC2)c1F` [Compound 377] the figure was less than 0.1 µM; with `Cc1ncc(N[C@H]2CC[C@@H](Oc3cc(N4CCOCC4)cc4nccnc34)CC2)c(C)n1` [Compound 449], less than 0.1 µM.

For the molecule `CCc1ncnc(N[C@H]2CC[C@@H](Oc3cc(C4=CCOCC4)cc4nccnc34)CC2)c1F` [Compound 295], the inhibitory constant (Ki) is less than 0.1 µM. With `Cc1ncc(F)c(N[C@H]2CC[C@@H](Oc3cc(N4CCOCC4)cc4nccnc34)CC2)n1` [Compound 494] the figure was less than 0.1 µM; with `c1cc(N[C@H]2CC[C@@H](Oc3cc(N4CCOCC4)cc4nccnc34)CC2)n2nccc2c1` [Compound 580], less than 0.1 µM; with `CC1(C)OCc2cc(N[C@H]3CC[C@@H](Oc4cc(N5CCOCC5)cc5nccnc45)CC3)cnc21` [Compound 571], less than 0.1 µM.

In the case of `Cn1nc(N[C@H]2CC[C@@H](Oc3cc(N4CCOCC4)cc4nccnc34)CC2)c2ccccc21` [Compound 298], the inhibitory constant (Ki) is less than 0.1 µM. As for `Cc1nc2c(c(N[C@H]3CC[C@@H](Oc4cc(N5CCOCC5)cc5nccnc45)CC3)n1)OCC2` [Compound 403], the figure is less than 0.1 µM; as for `Cc1nc(C)c(C)c(N[C@H]2CC[C@@H](Oc3cc(N4CCOCC4)cc4nccnc34)CC2)n1` [Compound 436], less than 0.1 µM. As for `CCOc1cc(N[C@H]2CC[C@@H](Oc3cc(N4CCOCC4)cc4nccnc34)CC2)ccn1` [Compound 324], the figure is less than 0.1 µM; as for `c1cnc2c(O[C@H]3CC[C@@H](Nc4ncc5c(n4)OCC5)CC3)cc(N3CCOCC3)cc2n1` [Compound 621], less than 0.1 µM. With `c1cc(CN2CCOCC2)nc(N[C@H]2CC[C@@H](Oc3cc(N4CCOCC4)cc4nccnc34)CC2)n1` [Compound 505] the figure was less than 0.1 µM; with `CNc1ncc(OC)c(N[C@H]2CC[C@@H](Oc3cc(N4CCOCC4)cc4nccnc34)CC2)n1` [Compound 387], less than 0.1 µM. As for `c1cnc2c(O[C@H]3CC[C@@H](Nc4ncc(-c5nnn[nH]5)cn4)CC3)cc(N3CCOCC3)cc2n1` [Compound 460], the Ki is less than 0.1 µM. With `Cc1ccc(N[C@H]2CC[C@@H](Oc3cc(N4CCOCC4)cc4nccnc34)CC2)cn1` [Compound 444] the figure was less than 0.1 µM. With `FC(F)(F)c1cnc(N[C@H]2CC[C@@H](Oc3cc(N4CCOCC4)cc4nccnc34)CC2)nc1` [Compound 418] the figure was less than 0.1 µM. With `COCc1cc(N[C@H]2CC[C@@H](Oc3cc(N4CC5CC(C4)O5)cc4nccnc34)CC2)nc(C)n1` [Compound 309] the figure was less than 0.1 µM; with `FC(F)(F)c1cccnc1N[C@H]1CC[C@@H](Oc2cc(N3CCOCC3)cc3nccnc23)CC1` [Compound 593], less than 0.1 µM; with `Cc1nc(N[C@H]2CC[C@@H](Oc3cc(N4CCOCC4)cc4nccnc34)CC2)ncc1F` [Compound 476], less than 0.1 µM. Consider `Cc1cn(C)c(N[C@H]2CC[C@@H](Oc3cc(N4CCOCC4)cc4nccnc34)CC2)n1` [Compound 646], for which the inhibition constant (Ki) was less than 0.1 µM.

Take `NC(=O)c1csc(N[C@H]2CC[C@@H](Oc3cc(N4CCOCC4)cc4nccnc34)CC2)n1` [Compound 331]: the inhibition constant (Ki) is less than 0.1 µM.

Take `Cc1nc(N[C@H]2CC[C@@H](Oc3cc(N4CCOCC4)cc4nccnc34)CC2)cc(N(C)C)n1` [Compound 602]: the inhibition constant Ki is less than 0.1 µM. As for `c1cnc(N[C@H]2CC[C@@H](Oc3cc(N4CC5CC(C4)O5)cc4nccnc34)CC2)nc1` [Compound 291, N-[4-[7-(6-oxa-3-azabicyclo[3.1.1]heptan-3-yl)quinoxalin-5-yl]oxycyclohexyl]pyrimidin-2-amine], the figure is less than 0.1 µM.

Regarding `CN(C)CCOc1cnc(N[C@H]2CC[C@@H](Oc3cc(N4CCOCC4)cc4nccnc34)CC2)nc1` [Compound 624], the inhibitory constant (Ki) is less than 0.1 µM. With `Clc1nc(N[C@H]2CC[C@@H](Oc3cc(N4CCOCC4)cc4nccnc34)CC2)nc2cc[nH]c12` [Compound 514] the figure was less than 0.1 µM. As for `Cn1nnc(-c2cnc(N[C@H]3CC[C@@H](Oc4cc(N5CCOCC5)cc5nccnc45)CC3)nc2)n1` [Compound 458], the figure is less than 0.1 µM. With `CN1CCN(C(=O)c2cnc(N[C@H]3CC[C@@H](Oc4cc(N5CCOCC5)cc5nccnc45)CC3)nc2)CC1` [Compound 337] the figure was less than 0.1 µM; with `NC1(c2ccc(N[C@H]3CC[C@@H](Oc4cc(N5CCOCC5)cc5nccnc45)CC3)cn2)CC1` [Compound 466], less than 0.1 µM. For `Cn1ccc2c(N[C@H]3CC[C@@H](Oc4cc(N5CCOCC5)cc5nccnc45)CC3)ncnc21` [Compound 384], the inhibition constant (Ki) is less than 0.1 µM. As for `CCN1CCC(c2cnc(N[C@H]3CC[C@@H](Oc4cc(N5CCOCC5)cc5nccnc45)CC3)nc2)CC1` [Compound 523], the figure is less than 0.1 µM; as for `O=C(NCC1CCCCC1)N[C@H]1CC[C@@H](Oc2cc(N3CCOCC3)cc3nccnc23)CC1` [Compound 410], less than 0.1 µM; as for `COc1cc(N[C@H]2CC[C@@H](Oc3cc(N4CCOCC4)cc4nccnc34)CC2)ccn1` [Compound 440], less than 0.1 µM.

`COCCOc1cc(N[C@H]2CC[C@@H](Oc3cc(N4CCOCC4)cc4nccnc34)CC2)ncn1` [Compound 539]: the Ki was less than 0.1 µM. `OC1(c2ccc(N[C@H]3CC[C@@H](Oc4cc(N5CCOCC5)cc5nccnc45)CC3)cn2)COC1` [Compound 468]: the Ki was less than 0.1 µM. As for `CNC(=O)c1cc(N[C@H]2CC[C@@H](Oc3cc(N4CC5CC(C4)O5)cc4nccnc34)CC2)ncn1` [Compound 315], the figure is less than 0.1 µM. In the case of `OC1CCN(c2cc(N[C@H]3CC[C@@H](Oc4cc(N5CCOCC5)cc5nccnc45)CC3)ncn2)CC1` [Compound 492], the inhibitory constant (Ki) is less than 0.1 µM.

`Cc1ncc(-c2cc(N[C@H]3CC[C@@H](Oc4cc(N5CCOCC5)cc5nccnc45)CC3)ncn2)cn1` [Compound 426]: the Ki was less than 0.1 µM. As for `c1cc(N[C@H]2CC[C@@H](Oc3cc(N4CCOCC4)cc4nccnc34)CC2)nc(N2CCOCC2)c1` [Compound 590], the figure is less than 0.1 µM.

As for `CC(C)(C)NC(=O)N[C@H]1CC[C@@H](Oc2cc(N3CCOCC3)cc3nccnc23)CC1` [Compound 425], the Ki is less than 0.1 µM. With `Cc1ncccc1N[C@H]1CC[C@@H](Oc2cc(N3CCOCC3)cc3nccnc23)CC1` [Compound 442] the figure was less than 0.1 µM; with `c1nc2c(c(N[C@H]3CC[C@@H](Oc4cc(N5CCOCC5)cc5nccnc45)CC3)n1)CCN2` [Compound 370], less than 0.1 µM. For `Cc1cc(N[C@H]2CC[C@@H](Oc3cc(N4CCOCC4)cc4nccnc34)CC2)n2cnnc2n1` [Compound 500], the Ki is less than 0.1 µM.

Regarding `c1cc2c(c(N[C@H]3CC[C@@H](Oc4cc(N5CCOCC5)cc5nccnc45)CC3)n1)CCN2` [Compound 371], the inhibition constant Ki was less than 0.1 µM. With `CCOc1cnc(N[C@H]2CC[C@@H](Oc3cc(N4CCOCC4)cc4nccnc34)CC2)cn1` [Compound 334] the figure was less than 0.1 µM; with `O=C(O)c1ccc(N[C@H]2CC[C@@H](Oc3cc(N4CCOCC4)cc4nccnc34)CC2)cn1` [Compound 393], less than 0.1 µM. With `COc1ccc(N[C@H]2CC[C@@H](Oc3cc(N4CCOCC4)cc4nccnc34)CC2)nc1OC` [Compound 583], the Ki is less than 0.1 µM.

Regarding `FC(F)(F)c1cccc(N[C@H]2CC[C@@H](Oc3cc(N4CCOCC4)cc4nccnc34)CC2)n1` [Compound 587], the Ki is less than 0.1 µM.

On to `CN1CCN(c2ccc(N[C@H]3CC[C@@H](Oc4cc(N5CCOCC5)cc5nccnc45)CC3)nc2)CC1` [Compound 626], for which the inhibitory constant (Ki) was less than 0.1 µM. With `FC(F)(F)c1cnc(N[C@H]2CC[C@@H](Oc3cc(N4CCOCC4)cc4nccnc34)CC2)cn1` [Compound 366] the figure was less than 0.1 µM. With `O=C1Cc2c(ncnc2N[C@H]2CC[C@@H](Oc3cc(N4CCOCC4)cc4nccnc34)CC2)N1` [Compound 502] the figure was less than 0.1 µM; with `c1cnc(N[C@H]2C[C@@H](COc3cc(N4CCOCC4)cc4nccnc34)C2)nc1` [Compound 305], less than 0.1 µM. As for `CNc1nc(N[C@H]2CC[C@@H](Oc3cc(N4CCOCC4)cc4nccnc34)CC2)ncc1F` [Compound 482], the figure is less than 0.1 µM; as for `COCc1ccnc(N[C@H]2CC[C@@H](Oc3cc(N4CCOCC4)cc4nccnc34)CC2)c1` [Compound 582], less than 0.1 µM. Take `c1cc2ccoc2c(N[C@H]2CC[C@@H](Oc3cc(N4CCOCC4)cc4nccnc34)CC2)n1` [Compound 470]: the Ki is less than 0.1 µM. With `c1cnc(O[C@H]2CC[C@H](Oc3cc(N4CCOCC4)cc4nccnc34)CC2)nc1` [Compound 34, 4-(8-(((trans)-4-(pyrimidin-2-yloxy)cyclohexyl)oxy)quinoxalin-6-yl)morpholine] the figure was less than 0.1 µM; with `Cn1nc(N[C@H]2CC[C@@H](Oc3cc(N4CCOCC4)cc4nccnc34)CC2)ccc1=O` [Compound 578], less than 0.1 µM. For the molecule `Cc1nccc(N[C@H]2CC[C@@H](Oc3cc(N4CCO[C@H](CO)C4)cc4nccnc34)CC2)n1` [Compound 320], the Ki is less than 0.1 µM. As for `c1cnc2c(O[C@H]3CC[C@@H](Nc4ncc(OCCCN5CCCCC5)cn4)CC3)cc(N3CCOCC3)cc2n1` [Compound 507], the figure is less than 0.1 µM; as for `[2H]C([2H])([2H])c1nccc(N[C@H]2CC[C@@H](Oc3cc(N4CCOCC4)cc4nccnc34)CC2)n1` [Compound 478], less than 0.1 µM; as for `CCOc1cccc(N[C@H]2CC[C@@H](Oc3cc(N4CCOCC4)cc4nccnc34)CC2)n1` [Compound 588], less than 0.1 µM.
